# Experimental data taken from patent publication US20040121004A1, “Dosage forms containing a PPI, NSAID, and buffer” (priority 2002, published 2004).
# Columns and labels:
# [1] = PPI/NSAID drug substance compatibility (storage stability of mixtures); type: physicochemical
# Experimental: Various NSAIDs were combined with lansoprazole with and without a buffer to determine the compatibility of the components. The various mixtures were placed at room temperature and 40° C. with 75% relative humidity. The samples were tested initially and after two weeks at the storage conditions above. The results are reported in Table 1 below as a percent of the theoretical amount of a given component.
# [2] = Substance compatibility in granulations: potency by HPLC, initially and after storage; type: physicochemical; conditions: for Potency NSAID, 2 Weeks Extreme Conditions: 2 weeks at 40° C. with 75% to 85% relative humidity; for Potency NSAID, 4 Weeks Extreme Conditions: 4 weeks at 40° C. with 75% to 85% relative humidity; for Potency NSAID, 19 Days RT: 19 days at room temperature; for Potency NSAID, 33 Days RT: 33 days at room temperature
# Experimental: In this example, granulations of a PPI and various NSAIDs were prepared to determine the compatibility of these substances with each other in a granulated form.
# The potency (mg/g) of each drug substance in each granulation was determined by HPLC.
# Granulations A, C, and D, as well as naproxen and piroxicam drug substances were weighed and separately placed in scintillation vials and stored at room temperature (RT) and at 40° C. with 75% to 85% relative humidity (“Extreme Conditions”). Granulations A, C, and D, as well as the naproxen and piroxicam, were tested for potency of the lansoprazole and NSAID after 19 and 33 days at the room temperature conditions and after two and four weeks under the Extreme Conditions.
Compound,"% of Theory, lansoprazole, Initial ([1]; initial, percent of theoretical amount of lansoprazole)","% of Theory, lansoprazole, 40° C. 75% humidity ([1]; two weeks at 40° C. with 75% relative humidity)","% of Theory, lansoprazole, Room Temp. ([1]; two weeks at room temperature)","Potency NSAID, 2 Weeks Extreme Conditions [2]","Potency NSAID, 4 Weeks Extreme Conditions [2]","Potency NSAID, 19 Days RT [2]","Potency NSAID, 33 Days RT [2]"
"Cc1c(OCC(F)(F)F)ccnc1C[S+]([O-])c1nc2ccccc2[nH]1 (centres unmarked) [Lansoprazole, lansoprazole]",100.8/NA %,99.1/NA %,99.1/NA %,–,–,–,–
"CN1C(C(=O)Nc2ccccn2)=C(O)c2ccccc2S1(=O)=O [Piroxicam, piroxicam]",–,–,–,NA/942.2 mg/g,NA/1005.5 mg/g,NA/1027.1 mg/g,NA/998.5 mg/g
"COc1ccc2cc([C@H](C)C(=O)O)ccc2c1 [Naproxen, naproxen]",–,–,–,NA/996.7 mg/g,NA/1000.9 mg/g,NA/997.2 mg/g,NA/998.2 mg/g
